Measurements taken from US7223784B2, “Compounds for the modulation of the glycolysis enzyme and/or transaminase complex” (ScheBo® Biotech AG, priority 2002, dated 2007).

Tests used:
[1] = biological target: cytosolic isoenzyme of the GOT (Homo sapiens, UniProt P17174); assay: Effect on activity of GOT isoenzymes in vitro (isoenzymes dissociated by isoelectric focusing), cytosolic isoenzyme; type: biochemical; details: FIG. 1b
Description: (§1) In FIG. 1b is shown the effect of […] (AOA) and hydroxylamine (HA) on the activity of the cytosolic and mitochondrial isoenzyme of the GOT in vitro. The isoenzymes of the GOT were dissociated by an isoelectric focusing. […] The inhibition of the GOT leads to an inhibition of the malate-aspartate shuttle. As a consequence, NAD cannot be recycled, and the glycolysis is inhibited at the stage of the GAPDH.

[2] = biological target: T1, mitochondrial isoenzyme of the GOT (Homo sapiens, UniProt P00505); assay: Effect on activity of GOT isoenzymes in vitro (isoenzymes dissociated by isoelectric focusing), mitochondrial isoenzyme; type: biochemical; details: FIG. 1b
T1 sequence (P00505 30-430): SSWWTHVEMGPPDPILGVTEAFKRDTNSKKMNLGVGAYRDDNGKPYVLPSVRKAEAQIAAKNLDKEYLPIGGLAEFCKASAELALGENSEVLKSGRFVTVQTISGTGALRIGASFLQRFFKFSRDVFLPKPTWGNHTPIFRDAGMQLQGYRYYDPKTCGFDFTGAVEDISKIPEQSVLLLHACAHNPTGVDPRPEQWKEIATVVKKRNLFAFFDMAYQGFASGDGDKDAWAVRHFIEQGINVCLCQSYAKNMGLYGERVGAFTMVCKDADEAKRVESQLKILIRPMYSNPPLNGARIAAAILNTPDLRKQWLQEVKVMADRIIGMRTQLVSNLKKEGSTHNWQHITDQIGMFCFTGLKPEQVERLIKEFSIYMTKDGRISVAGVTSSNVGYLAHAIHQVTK
Description: as §1

cytosolic isoenzyme of the GOT, sequence (P17174 whole entry): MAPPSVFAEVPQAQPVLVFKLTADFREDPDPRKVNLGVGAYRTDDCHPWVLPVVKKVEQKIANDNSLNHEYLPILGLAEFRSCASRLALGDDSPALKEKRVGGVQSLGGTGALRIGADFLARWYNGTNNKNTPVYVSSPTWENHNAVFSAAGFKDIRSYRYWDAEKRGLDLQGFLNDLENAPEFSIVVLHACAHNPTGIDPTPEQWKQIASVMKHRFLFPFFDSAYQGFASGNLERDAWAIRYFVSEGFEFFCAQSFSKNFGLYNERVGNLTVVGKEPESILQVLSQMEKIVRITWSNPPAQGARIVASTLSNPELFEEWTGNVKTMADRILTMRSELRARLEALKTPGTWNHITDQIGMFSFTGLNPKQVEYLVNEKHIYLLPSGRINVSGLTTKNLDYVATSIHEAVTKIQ

Row | SMILES | effect on the activity of the cytosolic isoenzyme of the GOT [1] | effect on the activity of the mitochondrial isoenzyme of the GOT [2]
1 | NOCC(=O)O [aminooxyacetate, (aminooxy)acetic acid] | mainly inhibits the cytosolic isoenzyme | –
2 | NO [hydroxylamine] | inhibits both isoenzymes | inhibits both isoenzymes
